{"source": "patent US20060160753A1", "about": "“Micronutrient formulation for cognitive & mood benefits” (Conopco Inc, d/b/a UNILEVER, priority 2004, published 2006)", "assay": "Urinary PABA recovery (compliance marker), Example 1 trial", "assay_type": "in vivo, human", "conditions": "24 h urine, all time points; 120 mg PABA per bar, 2 bars daily", "procedure": "Subjects were then randomized in a parallel design into two groups to receive either the nutrient test bar or placebo food. Both placebo and test bars contained 120 mg PABA (para-aminobenzoic acid), urinary excretion of which was used as a measure of compliance. Subjects were asked to continue adherence to dietary restrictions described above and to consume the provided test or control product twice daily (once with breakfast and once with evening meal) over the 10 week period.\nFasting venous blood samples were collected at the start of the 10 week intervention phase and on the last week of the intervention period. Serum and EDTA plasma samples were then collected following centrifugation at 3000 rpm for 10 mins at 4° C. and aliquots stored at −80° C. prior to analysis. Twenty-four hour urine samples were also collected at a total of 6 different time points through the study to monitor PABA excretion.\n33 subjects completed the study. Compliance was judged to be good as assessed by both subjective and objective measures. Briefly, subjects completed a food diary, in which labels attached to study bars were peeled off and stuck once consumed. The maximum number of bars reported to be missed was 14 during the 12 week (and therefore 168 bar) trial. This was corroborated by the urinary PABA results, which were used as an objective measure of compliance.", "data": [{"smiles": "Nc1ccc(C(=O)O)cc1", "note": "[PABA, para-aminobenzoic acid]", "values": [{"measurement": "PABA recovery", "result": "> 85", "unit": "%"}]}]}
